The text below walks through data of PubChem BioAssay (NCI).

What all share (assay): growth of human tumour cells (NCI), 48 h
The subject of assay [1] is HS 578T breast.
Assay [2] has as its system MOLT-4 leukemia.
For assay [3], the system named is PC-3 prostate.
For assay [4], the system named is HCT-116 colon.
Assay [5] concerns SK-MEL-2 melanoma.
Assay [6] deals with HOP-62 NSCLC.
Assay [7] has as its system DU-145 prostate.
In assay [8] the test system is CCRF-CEM leukemia.
Assay [9] has as its system SNB-75 CNS.

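Each compound was tested at five concentrations against cells in 96-well plates for 48 hours. The concentration for 50% growth inhibition is given as GI50. Definition used: TGI = concentration required for complete inhibition of growth.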

As for `O=c1ccc2nc3ccc(O)cc3oc-2c1`, the TGI in assay [1] was above 60 µM; in assay [2] it was above 100 µM; in assay [3], above 100 µM; in assay [4] it was above 100 µM; in [5] it was 57.7 µM; in assay [6], above 100 µM. The TGI was 57.5 µM in [7], above 100 µM in assay [8] and 22 µM in [9].

As to `Cn1c2c(c3c(=O)[nH]ncc31)CCCc1ccccc1-2`, the TGI is above 100 µM in assay [1]; 21.6 µM in assay [2]; above 100 µM in assay [3]; above 100 µM in assay [4]; 40.2 µM in [5]; above 100 µM in assay [6]. The TGI in [7], in assay [8] and in [9] was above 100 µM throughout.

For the compound `CCOC(=O)/C=C1\C[C@H](NC(=O)OCc2ccccc2)C(=O)N1CC(=O)OCC`, the TGI in assay [1], in [2], in assay [3], in assay [4], in assay [5] and in [6] was above 100 µM each time. For the same compound, the TGI in assay [7], in assay [8] and in [9] was above 100 µM throughout.

For `NC1=CN(Cc2ccccc2)C2=N/C(=C\c3ccco3)C(=O)N12`, the TGI in [1], in assay [2], in [3], in [4], in assay [5] and in assay [6] was above 100 µM each time. The TGI in assay [7], in [8] and in assay [9] was above 100 µM in each case.

`COC(=O)c1ccccc1Nc1ccccc1C(=O)OC`: the TGI was 72.2 µM in [1]; above 100 µM in [2]; above 100 µM in assay [3]; above 100 µM in assay [4]; above 100 µM in assay [5]; above 100 µM in assay [6]. Also, the TGI in [7], in assay [8] and in assay [9] was above 100 µM throughout.

Take `O[C@H]1[C@@H]2OC[C@@H](O)[C@H](OCc3ccccc3)[C@@](COCc3ccccc3)(O2)[C@@H]1OCc1ccccc1`: the TGI in [1] is 40.7 µM; in [2], above 100 µM; in [3], 28.3 µM; in assay [4], 47.5 µM; in assay [5] it was 29.7 µM; in assay [6], 34.4 µM. In addition, the TGI is 35.5 µM in assay [7], 42.1 µM in assay [8] and 18.7 µM in assay [9].

Regarding `CCOC(=O)c1c(CN2CCOCC2)n(Cc2ccccc2)c2c1cc(O)c1nc(C)c(C)nc12`, the TGI in assay [1] was above 100 µM; in [2] it was above 100 µM; in assay [3], 92.4 µM; in assay [4], above 100 µM; in assay [5], 44.5 µM; in assay [6], 51.1 µM. Moreover, the TGI is above 100 µM in [7], above 100 µM in assay [8] and 32.7 µM in assay [9].

For the compound `CC(C)C(=O)CP(=O)(O)O`, the TGI in assay [1], in [2], in assay [3], in assay [4], in [5] and in assay [6] was above 100 µM in each case. Also, the TGI in assay [7], in assay [8] and in assay [9] was above 100 µM each time.

In the case of `CC(=O)Nc1ccc2c3c(cc(O)c2c1)N(C(=O)CCCCCC(=O)Nc1ccc2c4c(cc(O)c2c1)N(C(=O)OC(C)(C)C)CC4CCl)CC3CCl` (stereo not given), the TGI in assay [1] was above 26.9 µM; in [2], above 32.6 µM; in assay [3] it was above 50.2 µM; in assay [4] it was 14.4 µM; in [5], 4.02 µM; in [6], 12 µM. In addition, the TGI in [7] is 3.12 µM; in [8], 0.648 µM; in [9] it was 5.22 µM.

For the compound `CC(=O)Nc1nc(C)c(-c2cc3c(c(S(C)(=O)=O)c2)C(=O)N([C@@H](C)C2CC2)C3)s1`, the GI50 was 18.4 µM in [1]; 29.3 µM in assay [2]; 31.2 µM in [3]; 28.3 µM in assay [4]; 21.9 µM in assay [5]; 28.2 µM in [6]. Further, the GI50 in [7] is 29.5 µM; in assay [8], 1.18 µM; in assay [9] it was 3.11 µM. Also, the TGI in [1] is 64.2 µM; in assay [2] it was above 100 µM; in assay [3], above 100 µM; in assay [4], above 100 µM; in [5] it was 67.7 µM; in assay [6] it was above 100 µM. The TGI was above 100 µM in assay [7], above 100 µM in assay [8] and 35.6 µM in [9].

Regarding `NC(=O)N/N=C/c1ccccc1O`, the TGI in [1], in [2], in [3], in assay [4], in assay [5] and in assay [6] was above 100 µM throughout. The TGI in assay [7], in assay [8] and in assay [9] was above 100 µM throughout.

For `CCO/N=C(/CC)c1ccc(Br)s1`, the TGI in assay [1], in assay [2], in assay [3], in assay [4], in assay [5] and in [6] was above 100 µM throughout. Moreover, the TGI in [7], in assay [8] and in [9] was above 100 µM throughout.

`Cc1ccc2c(c1)C/C(=C\c1ccccc1C(=O)O)C2=O`: the TGI in [1], in assay [2], in [3], in assay [4], in assay [5] and in assay [6] was above 100 µM throughout. Further, the TGI in assay [7], in [8] and in assay [9] was above 100 µM each time.

Turning to `Cc1cccc2c(=O)c3c(O)cc4c(c3n(C)c12)C=CC(C)(C)O4`, the TGI in assay [1], in [2], in assay [3], in assay [4], in assay [5] and in assay [6] was above 100 µM in each case. Also, the TGI in [7], in [8] and in assay [9] was above 100 µM each time.
